Assay results as given in patent US5541162A, “Glutathione derivatives” (Senju Pharmaceutical Co., Ltd., priority 1990, dated 1996).

What was measured:
[1] = test system: acetaminophen-induced liver damage; assay: Effect on acetaminophen-induced liver damage; type: in vivo, rat; details: for s-GOT, mean ± S.E. / s-GPT, mean ± S.E. / s-GOT percent inhibition (figure in parentheses) / s-GPT percent inhibition (figure in parentheses): male SD rats; for s-GOT, mean ± S.E. / s-GPT, mean ± S.E.: 0.5 mmole/kg orally 1 hour before acetaminophen 300 mg/kg i.p., serum after 24 hours; for s-GOT percent inhibition (figure in parentheses) / s-GPT percent inhibition (figure in parentheses): vs physiological saline control
Procedure: Method: Male SD rats (body weights about 180 g) purchased from Shizuoka Laboratory Animal Center were used as test animals. The test substance was orally administered (0.5 mmole/kg), and after 1 hour, acetaminophen 300 mg/kg was intraperitoneally administered. After 24 hours, the blood was drawn from the abdominal aorta of each rat and the serum was separated and determined for s-GOT and GPT.

[2] = test system: carrageenin-induced conjunctival edema; assay: Effect on carrageenin-induced conjunctival edema; type: in vivo, rat; details: male Wistar rats; for % Inhibition (conjunctival edema): 30 mg/kg i.v., vs physiological saline control; for Conjunctival edema weight (mg ± S.E): test substance 30 mg/5 ml/kg i.v. 1 minute before subconjunctival 1% carrageenin, n=10
Procedure: Method: Male Wistar rats (body weight about 120 g) purchased from Shizuoka Laboratory Animal Center were used as test animals. Each animal was anesthesized with pentobarbital 6 mg/kg i.p. and a solution of the test substance in physiological saline was intravenously administered (30 mg/5 ml/kg). After 1 minute, 50 μl of a 1% solution of carrageenin in physiological saline was injected subconjunctivally. After 3 minutes, the rat was sacrificed and the carrageenin-induced conjunctival edema was weighed.

[3] = test system: rat back passive anaphylactic reaction; assay: Effect on rat back passive anaphylactic reaction; type: in vivo; details: male Wistar rats; for % Inhibition (passive anaphylactic reaction): 30 mg/kg i.v., vs physiological saline control; for Absorbance (extracted Evans blue dye), mean ± S.E.: 30 mg/kg into caudal vein 1 minute before antigen, dye extracted after 30 minutes, n=5
Procedure: Method: Male Wistar rats (body weight about 130 g) purchased from Shizuoka Laboratory Animal Center were used as test animals. The back hair of each rat was clipped off and the antiserum was injected intradermally at the back. After 3 days, the test substance 30 mg/kg was injected into the caudal vein (control: physiological saline). One minute later, 1 ml of a 50:50 mixture of 1% egg white albumin and 2% Evans blue in physiological saline was intravenously administered as the antigen to induce a passive anaphylactic reaction. After 30 minutes, the rat was sacrificed, the stained area of the rat back was isolated the dye was extracted with 10 ml of formamide to determine the amount of the dye.

| Molecule | s-GOT, mean ± S.E. [1] | s-GPT, mean ± S.E. [1] | s-GOT percent inhibition (figure in parentheses) ([1]; 0.5 mmole/kg orally) | s-GPT percent inhibition (figure in parentheses) ([1]; 0.5 mmole/kg orally) | % Inhibition (conjunctival edema) [2] | Conjunctival edema weight (mg ± S.E) [2] | % Inhibition (passive anaphylactic reaction) [3] | Absorbance (extracted Evans blue dye), mean ± S.E. [3] | Efficacy on acetaminophen-induced liver damage (in words) ([1]; 0.5 mmole/kg orally, rats) |
| --- | --- | --- | --- | --- | --- | --- | --- | --- | --- |
| N[C@@H](CCC(=O)N[C@@H](CSC1CC(=O)NC1=O)C(=O)NCC(=O)O)C(=O)O (stereo partly drawn) [R1 = H, R2 R3 = NH, S-[(1,2-Dicarboximido)ethyl]glutathione] | 1288 ± 316 | 351 ± 82 | 54.0% | 50.1% | 9.9% | 63.9 ± 4.1 mg | 47.4% | 0.459 ± 0.104 | – |
| CC(C)OC(=O)CNC(=O)[C@H](CSC(CC(N)=O)C(N)=O)NC(=O)CC[C@H](N)C(=O)O (stereo partly drawn) [R1 = C3 H7, R2 = R3 = NH2, S-(1,2-Dicarbamoylethyl)glutathioneisopropyl ester] | 1760 ± 911 | 740 ± 394 | 59.8% | 46.7% | 26.2% | 58.2 ± 1.4 mg | 43.6% | 0.492 ± 0.083 | – |
| S-(1,2-Dicarboxyethyl)glutathioneisopropyl ester [R1 = C3 H7, R2 = R3 = OH] | 929 ± 500 | 404 ± 278 | 78.8% | 70.9% | 19.0% | 63.9 ± 3.6 mg | 47.7% | 0.457 ± 0.055 | – |
| CCCCOC(=O)CC(SC[C@H](NC(=O)CC[C@H](N)C(=O)O)C(=O)NCC(=O)OC(C)C)C(=O)OCCCC (stereo partly drawn) [R1 = C3 H7, R2 = R3 = OC4 H9, S-(1,2-Dicarbo-n-butoxyethyl)glutathione isopropyl ester] | 178 ± 64 | 45 ± 11 | 95.9% | 96.8% | 1.9% | 77.4 ± 4.0 mg | 43.6% | 0.492 ± 0.094 | – |
| NC(=O)CC(SC[C@H](NC(=O)CC[C@H](N)C(=O)O)C(=O)NCC(=O)O)C(N)=O (stereo partly drawn) [R1 = H, R2 = R3 = NH2, S-(1,2-Dicarbamoylethyl)glutathione] | 591 ± 155 | 147 ± 48 | 78.9% | 79.1% | 5.4% | 67.1 ± 3.8 mg | 35.3% | 0.565 ± 0.162 | – |
| CC(C)OC(=O)CNC(=O)[C@H](CSC1CC(=O)NC1=O)NC(=O)CC[C@H](N)C(=O)O (stereo partly drawn) [R1 = C3 H7, R2 R3 = NH, S-[(1,2-Dicarboximido)ethyl]glutathione isopropyl ester] | – | – | – | – | 21.4% | 62.0 ± 1.6 mg | 26.5% | 0.642 ± 0.141 | – |
| CCCCOC(=O)CC(CSC[C@H](NC(=O)CC[C@H](N)C(=O)O)C(=O)NCC(=O)OC(C)C)C(=O)OCCCC (stereo partly drawn) [R1 = C3 H7, R2 = R3 = C4 H9, S-(2,3-Dicarbo-n-butoxypropyl)glutathione isopropyl ester] | 309 ± 105 | 86 ± 31 | 88.4% | 70.9% | – | – | – | – | significant effect |
| S-[1-(or 2)Carboxy-2-(or 1)carbamoylethyl]glutathione | – | – | – | – | 9.6% | 64.1 ± 4.2 mg | 43.4% | 0.494 ± 0.066 | – |
| CCN1C(=O)CC(SC[C@H](NC(=O)CC[C@H](N)C(=O)O)C(=O)NCC(=O)O)C1=O (stereo partly drawn) [R1 = H, R2 R3 = N--C2 H5, S-[N-Ethyl-2,5-dioxopyrrolidin-3-yl]glutathione] | – | – | – | – | 9.9% | 63.9 ± 3.6 mg | 41.1% | 0.514 ± 0.050 | – |
| CCOC(=O)CC(SC[C@H](NC(=O)CC[C@H](N)C(=O)O)C(=O)NCC(=O)OC(C)C)C(=O)OCC (stereo partly drawn) [R1 = C3 H7, R2 = R3 = OC2 H5, γ-L-Glutamyl-[S-(1,2-dicarbethoxyethyl)]-L-cystinylglycine isopropyl ester] | 394 ± 178 | 111 ± 51 | 91.0% | 92.0% | 23.7% | 60.2 ± 1.2 mg | 44.6% | 0.484 ± 0.093 | – |
